In BindingDB's records for doi:10.1016/j.bmcl.2010.10.020 (Incyte, 2010):

Key:
[1] = Antagonist activity at human CCR2 assessed as inhibition of MCP1 induced chemotaxis after 30 mins
[2] = Antagonist activity at mouse CCR2 assessed as inhibition of MCP1 induced chemotaxis after 30 mins

| Structure (SMILES) | IC50 [1] | IC50 [2] |
| --- | --- | --- |
| O=C(CNC(=O)c1cccc(C(F)(F)F)c1)N[C@H]1CN([C@H]2CC[C@@H](c3ccccc3)CC2)C[C@@H]1O [N-(2-((3S,4S)-4-hydroxy-1-(cis-4-phenylcyclohexyl)pyrrolidin-3-ylamino)-2-oxoethyl)-3-(trifluoromethyl)benzamide] | 12 nM | 265 nM |
| CCO[C@H]1CN([C@H]2CC[C@@H](c3ccccc3)CC2)C[C@@H]1NC(=O)CNC(=O)c1cccc(C(F)(F)F)c1 [N-(2-((3S,4S)-4-ethoxy-1-(cis-4-phenylcyclohexyl)pyrrolidin-3-ylamino)-2-oxoethyl)-3-(trifluoromethyl)benzamide] | 6.5 nM | 14 nM |

More lines, in order of falling IC50 [1], values ahead:

| IC50 [1] | IC50 [2] | Structure (SMILES) |
| --- | --- | --- |
| 3 nM | 444 nM | CCO[C@H]1CN([C@H]2CC[C@@](O)(c3ccccc3)CC2)C[C@@H]1NC(=O)CNC(=O)c1cccc(C(F)(F)F)c1 [N-(2-((3S,4S)-4-ethoxy-1-(cis-4-hydroxy-4-phenylcyclohexyl)pyrrolidin-3-ylamino)-2-oxoethyl)-3-(trifluoromethyl)benzamide] |
| 1.8 nM | 158 nM | CCCO[C@H]1CN([C@H]2CC[C@@H](c3ccccc3)CC2)C[C@@H]1NC(=O)CNC(=O)c1cccc(C(F)(F)F)c1 [N-(2-oxo-2-((3S,4S)-1-(cis-4-phenylcyclohexyl)-4-propoxypyrrolidin-3-ylamino)ethyl)-3-(trifluoromethyl)benzamide] |
| 1.4 nM | 13 nM | CCO[C@H]1CN([C@H]2CC[C@@](O)(c3ccc(C)cc3)CC2)C[C@@H]1NC(=O)CNC(=O)c1cccc(C(F)(F)F)c1 [N-(2-((3S,4S)-4-ethoxy-1-(cis-4-hydroxy-4-p-tolylcyclohexyl)pyrrolidin-3-ylamino)-2-oxoethyl)-3-(trifluoromethyl)benzamide] |
